Measurements: PubChem BioAssay (NCI)
Where “and” joins values, the source holds several entries; their conditions need not be identical. Equal entries are not always repeated.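 Dose response: 5 concentrations. Exposure: 48 h. Format: 96-well plates. Endpoint: linear interpolation; highest concentration if not reached. GI50 marks 50% less growth. At the TGI there is no net growth.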

Key:
Test in all cases: NCI anticancer screen, dose series, 48 h
ACHN renal = system: ACHN renal
DU-145 prostate = system: DU-145 prostate
HCT-15 colon = system: HCT-15 colon
HT29 colon = system: HT29 colon
MALME-3M melanoma = system: MALME-3M melanoma
MDA-MB-231 breast = system: MDA-MB-231 breast
NCI-H226 lung = system: NCI-H226 lung
OVCAR-3 ovarian = system: OVCAR-3 ovarian
T-47D breast = system: T-47D breast
UO-31 renal = system: UO-31 renal

Row | Structure (SMILES) | TGI (ACHN renal) | TGI (DU-145 prostate) [µM] | TGI (HCT-15 colon) [µM] | TGI (HT29 colon) | TGI (MALME-3M melanoma) | TGI (MDA-MB-231 breast) | TGI (NCI-H226 lung) | TGI (OVCAR-3 ovarian) | TGI (T-47D breast) | TGI (UO-31 renal) | GI50 (ACHN renal) | GI50 (DU-145 prostate) | GI50 (HCT-15 colon) | GI50 (HT29 colon) | GI50 (MALME-3M melanoma) | GI50 (MDA-MB-231 breast) | GI50 (NCI-H226 lung) | GI50 (OVCAR-3 ovarian) | GI50 (T-47D breast) | GI50 (UO-31 renal)
1 | O=C1OC(=O)C2CCCC3CCCC1C32 (stereo not given) | > 100 µM | > 100 | > 100 | > 100 µM | > 100 µM | > 100 µM | > 100 µM | > 100 µM | > 100 µM | > 100 µM | – | – | – | – | – | – | – | – | – | –
2 | COc1cc2nccc(Oc3ccc(NC(=O)Nc4cc(C)on4)c(Cl)c3)c2cc1OC | 22.3 µM and > 10 µM | > 77.8 | > 100 | 15.5 µM and > 10 µM | 8.17 µM and > 10 µM | 8.73 µM and > 10 µM | 35.2 µM and > 10 µM | 14.4 µM and > 10 µM | 23.2 µM and > 10 µM | 5.76 µM and > 10 µM | 3.28 µM and 3.72 µM | 4.31 µM and 6.6 µM | 4.36 µM and 4.2 µM | 3.01 µM and 2.78 µM | 1.92 µM and 6.17 µM | 2.18 µM and 2.42 µM | 0.795 µM and 0.438 µM | 4 µM and 7.96 µM | 2.98 µM and 3.35 µM | 1.88 µM and 2.5 µM
3 | Cc1cc2c(C(N)=O)c(N)n(-c3c(C)ccc(O)c3C)c2nc1C | 10.5 µM | 19.7 | 65.4 | > 100 µM | 18.3 µM | 13.9 µM | 4.89 µM | 14.7 µM | > 100 µM | 14.9 µM | 1.84 µM | 4.16 µM | 5.51 µM | 0.585 µM | 3.08 µM | 2.12 µM | 0.569 µM | 3.07 µM | 6.68 µM | 3.18 µM
4 | C=C1C(=O)O[C@H]2[C@H]1CC/C(COC(=O)C(C)c1ccc(CC(C)C)cc1)=C\CC[C@@]1(C)O[C@@H]21 (stereo not given in full) | 2.56 µM | 2.95 | 2.37 | 2.59 µM | 2.99 µM | 2.73 µM | 3.52 µM | 2.87 µM | 4.43 µM | 2.54 µM | 1.29 µM | 1.59 µM | 0.871 µM | 1.11 µM | 1.56 µM | 1.38 µM | 1.64 µM | 1.5 µM | 1.72 µM | 1.28 µM
5 | O=C1C2CCN(CC2)C1(CO)CO | 32.3 µM | 31.6 | 34.6 | 73.7 µM | 36.6 µM | 44 µM | 46.6 µM | 31 µM | 45.4 µM | 34.1 µM | – | – | – | – | – | – | – | – | – | –
6 | O=C(N/N=C/c1ccc(O)cc1O)c1cccc(Nc2ccnc(C(F)(F)F)c2)c1 | 29.6 µM | 20.9 | 51.7 | > 100 µM | 11.5 µM | 51.8 µM | 9.44 µM | 30.9 µM | 15.6 µM | 33.6 µM | 1.25 µM | 1.93 µM | 2.2 µM | 5.14 µM | 1.32 µM | 1.08 µM | 1.21 µM | 0.488 µM | 0.66 µM | 1.44 µM
7 | [N-]=[N+]=NCCCn1c2c(c3ccc([N+](=O)[O-])cc3c1=O)C(=O)c1cc(F)ccc1-2 | 1.55 µM | > 63.5 | > 100 | > 35.2 µM | 19.8 µM | > 100 µM | > 46.8 µM | 26 µM | 3.08 µM | 12.6 µM | 0.269 µM | 0.547 µM | 5.86 µM | 1.24 µM | 3.46 µM | 30.3 µM | 2.26 µM | 3.76 µM | 0.295 µM | 0.807 µM
8 | CC1(C)NCCC[C@]2(C)[C@H]3CC[C@@H]4[C@H]5[C@H](C(=O)/C=C/c6ccccn6)CC[C@]5(CO)CC[C@@]4(C)[C@]3(C)CC[C@@H]12 | 13.6 µM | 12.4 | 3.89 | 11.3 µM | 3.51 µM | 5.64 µM | 20.7 µM | 4.89 µM | 16 µM | 23.3 µM | 3.58 µM | 3.56 µM | 1.84 µM | 2.85 µM | 1.77 µM | 2.29 µM | 4.24 µM | 2.14 µM | 2.78 µM | 5.7 µM
9 | Cc1cc(-c2ccccn2)cc(C)c1/C=C/c1cncc(-c2nn[nH]n2)c1 | > 25 µM | > 25 | > 25 | > 25 µM | > 25 µM | > 25 µM | > 25 µM | > 25 µM | > 25 µM | > 25 µM | > 25 µM | > 25 µM | > 25 µM | > 25 µM | > 25 µM | > 25 µM | > 25 µM | > 25 µM | > 25 µM | > 25 µM
10 | NS(=O)(=O)CC1CC[CH-]CC1.[Cl-].[Cl-].[Cl-].[Cl-].[Cl-].[Sb+5].c1ccncc1 | > 100 µM | > 100 | > 100 | > 100 µM | > 100 µM | > 100 µM | > 100 µM | > 100 µM | > 100 µM | > 100 µM | > 100 µM | > 100 µM | > 100 µM | > 100 µM | > 100 µM | > 100 µM | > 100 µM | > 100 µM | > 100 µM | > 100 µM
11 | Oc1ccc(C2c3ccccc3Oc3ccccc32)c2cccnc12 | 9.58 µM | > 100 | > 100 | > 100 µM | 27.4 µM | > 100 µM | 7.92 µM | > 100 µM | > 100 µM | 19.7 µM | 0.845 µM | 1.94 µM | 0.468 µM | 1.1 µM | 2.83 µM | 4.36 µM | 1.23 µM | 2.45 µM | 2.95 µM | 1.21 µM
12 | Clc1ccccc1CNc1c2ccccc2nc2ccccc12 | 6.89 µM | 8.58 | 6.85 | 9.02 µM | 9.1 µM | 10.2 µM | 10.1 µM | 10.5 µM | 13 µM | 6.96 µM | 1.76 µM | 2.45 µM | 1.69 µM | 1.67 µM | 2.71 µM | 2.39 µM | 2.22 µM | 3.39 µM | 2.3 µM | 1.35 µM
13 | CC(CN(C)C)Oc1ccccc1NC1=C(Cl)C(=O)C(Nc2ccccc2OC(C)CN(C)C)=C(Cl)C1=O (stereo not given) | 0.312 µM | 0.686 | 0.375 | 0.423 µM | 1.38 µM | 1.2 µM | 2.91 µM | 0.31 µM | 0.455 µM | 0.853 µM | 0.174 µM | 0.255 µM | 0.176 µM | 0.179 µM | 0.605 µM | 0.509 µM | 1.41 µM | 0.167 µM | 0.175 µM | 0.437 µM
